Consider one compound from ChEMBL document CHEMBL5209564, “Superclomeleon biosensor based assay for SLC12A3 using HEK-293 SLC12A3 OE cells” (2022).

Molecules are shown by their SMILES.

The target in this test is T1, Solute carrier family 12 member 3 (Homo sapiens) (UniProt P55017).
T1 sequence (whole entry): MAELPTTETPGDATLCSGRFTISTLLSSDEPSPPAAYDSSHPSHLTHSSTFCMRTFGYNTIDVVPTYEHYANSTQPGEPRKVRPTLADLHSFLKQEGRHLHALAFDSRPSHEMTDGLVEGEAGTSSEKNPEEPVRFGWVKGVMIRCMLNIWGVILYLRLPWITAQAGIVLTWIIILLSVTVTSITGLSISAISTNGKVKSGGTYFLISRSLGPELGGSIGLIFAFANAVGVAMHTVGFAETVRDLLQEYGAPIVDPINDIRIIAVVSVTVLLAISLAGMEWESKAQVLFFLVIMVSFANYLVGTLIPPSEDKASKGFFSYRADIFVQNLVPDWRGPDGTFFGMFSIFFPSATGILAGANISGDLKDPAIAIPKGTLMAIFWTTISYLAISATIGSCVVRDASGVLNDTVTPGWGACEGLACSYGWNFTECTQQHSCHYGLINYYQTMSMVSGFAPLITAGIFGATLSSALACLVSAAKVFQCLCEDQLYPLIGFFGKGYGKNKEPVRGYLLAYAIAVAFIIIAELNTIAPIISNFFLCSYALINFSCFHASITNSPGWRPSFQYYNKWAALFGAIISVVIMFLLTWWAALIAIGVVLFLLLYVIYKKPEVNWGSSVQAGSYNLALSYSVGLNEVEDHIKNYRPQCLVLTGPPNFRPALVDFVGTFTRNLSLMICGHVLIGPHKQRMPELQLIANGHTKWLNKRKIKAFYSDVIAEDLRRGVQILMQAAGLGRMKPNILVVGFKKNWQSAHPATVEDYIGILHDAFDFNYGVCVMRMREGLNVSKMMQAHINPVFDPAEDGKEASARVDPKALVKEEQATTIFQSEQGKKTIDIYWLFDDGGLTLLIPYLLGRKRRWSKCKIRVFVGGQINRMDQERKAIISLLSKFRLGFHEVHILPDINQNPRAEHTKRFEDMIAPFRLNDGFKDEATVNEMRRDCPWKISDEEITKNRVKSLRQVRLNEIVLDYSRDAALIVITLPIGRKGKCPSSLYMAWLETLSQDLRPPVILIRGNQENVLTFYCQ
Particulars: HEK293.

Description: Substrate uptake by the thiazide-sensitive electroneutral NaCl co-transporter (NCC, SLC12A3) as assessed by a Cl- sensitive FRET (Fluorescence Resonance Energy Transfer) sensor (SuperClomeleon) in HEK-293 JumpIN-SLC12A3 cells (PubChem AID: 1794834)

As for `Cl`, the proof of principle entry was “Substrate. In Comparison To Wild-Type And Not-Induced Cells, Cells With Induced Slc12A3 Expression Showed A Specific Transporter Activity, Upon Substrate Addition, Detected As Significantly Higher Sensor Fluorescence Quenching”.
